The values below come from publication PMC3661904 (Neuropharmacology, 2012).

For orientation: IC50 means the midpoint of a concentration-inhibition curve.

Test in all cases: aequorin intracellular calcium assay, inhibition of ACh response
Holding throughout (format): cell-based
On the technique in general: Calcium assays in cells follow changes in intracellular calcium, usually with a dye or a luminescent sensor.

The target of test [1] is human α3β4α5D nAChR (D398 variant of α5; α3β4α5N carries N398) (Homo sapiens, UniProt P30532+P30926+P32297, P30532:D398N).
human α3β4α5D nAChR (D398 variant of α5; α3β4α5N carries N398) (Homo sapiens, UniProt P30532+P30926+P32297, P30532:D398N), sequence (P32297 32-505): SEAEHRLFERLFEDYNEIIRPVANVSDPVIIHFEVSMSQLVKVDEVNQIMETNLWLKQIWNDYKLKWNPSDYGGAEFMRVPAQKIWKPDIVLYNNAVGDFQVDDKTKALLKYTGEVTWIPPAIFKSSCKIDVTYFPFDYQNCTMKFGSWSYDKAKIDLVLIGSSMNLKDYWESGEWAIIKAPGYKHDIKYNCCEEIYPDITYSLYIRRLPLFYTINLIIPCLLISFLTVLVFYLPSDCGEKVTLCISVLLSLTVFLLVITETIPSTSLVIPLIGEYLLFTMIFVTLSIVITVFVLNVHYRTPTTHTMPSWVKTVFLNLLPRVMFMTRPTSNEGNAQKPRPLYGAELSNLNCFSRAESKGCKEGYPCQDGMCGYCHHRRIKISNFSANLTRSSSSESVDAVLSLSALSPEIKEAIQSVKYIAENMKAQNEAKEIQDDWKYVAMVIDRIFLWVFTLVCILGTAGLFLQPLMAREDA
human α3β4α5D nAChR (D398 variant of α5; α3β4α5N carries N398) (Homo sapiens, UniProt P30532+P30926+P32297, P30532:D398N), sequence (P30926 22-498): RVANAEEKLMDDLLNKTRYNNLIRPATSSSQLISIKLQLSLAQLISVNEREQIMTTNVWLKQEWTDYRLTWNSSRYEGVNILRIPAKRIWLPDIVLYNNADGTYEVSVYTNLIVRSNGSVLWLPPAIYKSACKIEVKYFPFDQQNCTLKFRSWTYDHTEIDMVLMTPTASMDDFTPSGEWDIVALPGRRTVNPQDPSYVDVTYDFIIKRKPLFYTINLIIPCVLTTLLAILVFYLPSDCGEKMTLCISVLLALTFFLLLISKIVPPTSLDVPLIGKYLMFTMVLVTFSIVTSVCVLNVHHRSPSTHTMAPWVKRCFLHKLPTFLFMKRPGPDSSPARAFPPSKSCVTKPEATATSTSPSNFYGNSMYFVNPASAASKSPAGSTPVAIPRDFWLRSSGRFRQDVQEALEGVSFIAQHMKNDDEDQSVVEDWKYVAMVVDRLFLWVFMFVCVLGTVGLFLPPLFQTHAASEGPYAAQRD
human α3β4α5D nAChR (D398 variant of α5; α3β4α5N carries N398) (Homo sapiens, UniProt P30532+P30926+P32297, P30532:D398N), sequence (P30532 23-468 D398N): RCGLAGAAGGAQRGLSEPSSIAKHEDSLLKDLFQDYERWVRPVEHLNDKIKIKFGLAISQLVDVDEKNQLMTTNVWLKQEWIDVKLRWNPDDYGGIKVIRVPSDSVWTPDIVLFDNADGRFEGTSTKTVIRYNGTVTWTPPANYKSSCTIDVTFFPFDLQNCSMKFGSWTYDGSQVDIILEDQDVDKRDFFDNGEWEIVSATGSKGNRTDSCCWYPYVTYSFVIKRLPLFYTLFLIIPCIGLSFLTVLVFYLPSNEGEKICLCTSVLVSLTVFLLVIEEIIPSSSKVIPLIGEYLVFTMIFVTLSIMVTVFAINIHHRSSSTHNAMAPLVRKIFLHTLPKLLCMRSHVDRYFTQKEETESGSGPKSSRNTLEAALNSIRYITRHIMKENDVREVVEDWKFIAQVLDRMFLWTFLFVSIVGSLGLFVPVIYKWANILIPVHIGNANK
The target of test [2] is human α3β4α5D nAChR (D398 variant of α5; α3β4α5N carries N398) (Homo sapiens, UniProt P30532+P30926+P32297).
The target in test [3] is human α3β4 nicotinic acetylcholine receptor (α3β4 nAChR) (Homo sapiens, UniProt P30926+P32297).
human α3β4 nicotinic acetylcholine receptor (α3β4 nAChR), sequence (P32297 32-505): as the sequence (P32297 32-505) above
human α3β4 nicotinic acetylcholine receptor (α3β4 nAChR), sequence (P30926 22-498): as the sequence (P30926 22-498) above

As for `COc1cc2c3cc1Oc1cc(ccc1O)C[C@@H]1c4c(cc(OC)c(O)c4Oc4ccc(cc4)C[C@@H]3N(C)CC2)CC[N+]1(C)C` [D-Tubocurarine], the concentration for half-maximal inhibition (IC50) in test [1] stood at 640 ± 150 nM; in test [2], 940 ± 210 nM; in test [3], 1010 ± 240 nM.
Regarding `CCCCCCC(=O)OC1CC(C)(C)NC(C)(C)C1` [TMPH, 2,2,6,6-tetramethylpiperidin-4-yl heptanoate], the concentration for half-maximal inhibition (IC50) turned out to be 450 ± 40 nM in test [1], 360 ± 20 nM in test [2] and 830 ± 100 nM in test [3].
